Experimental data from ChEMBL document CHEMBL1128970, “Synthesis and characterization of the second cysteine-rich region of mouse skin PKCGh” (Bioorg Med Chem Lett, 1996).

Key:
[1] = biological target: T1, Protein kinase C gamma type (Rattus norvegicus, UniProt P63319); test: Inhibition of [3H]- PDBu binding to peptide C, rat brain PKC gamma
[2] = biological target: T2, Protein kinase C eta type (Mus musculus, UniProt P23298); test: Inhibition of [3H]- PDBu binding to peptide D of mouse skin Protein kinase C eta
T2 sequence (P23298 whole entry): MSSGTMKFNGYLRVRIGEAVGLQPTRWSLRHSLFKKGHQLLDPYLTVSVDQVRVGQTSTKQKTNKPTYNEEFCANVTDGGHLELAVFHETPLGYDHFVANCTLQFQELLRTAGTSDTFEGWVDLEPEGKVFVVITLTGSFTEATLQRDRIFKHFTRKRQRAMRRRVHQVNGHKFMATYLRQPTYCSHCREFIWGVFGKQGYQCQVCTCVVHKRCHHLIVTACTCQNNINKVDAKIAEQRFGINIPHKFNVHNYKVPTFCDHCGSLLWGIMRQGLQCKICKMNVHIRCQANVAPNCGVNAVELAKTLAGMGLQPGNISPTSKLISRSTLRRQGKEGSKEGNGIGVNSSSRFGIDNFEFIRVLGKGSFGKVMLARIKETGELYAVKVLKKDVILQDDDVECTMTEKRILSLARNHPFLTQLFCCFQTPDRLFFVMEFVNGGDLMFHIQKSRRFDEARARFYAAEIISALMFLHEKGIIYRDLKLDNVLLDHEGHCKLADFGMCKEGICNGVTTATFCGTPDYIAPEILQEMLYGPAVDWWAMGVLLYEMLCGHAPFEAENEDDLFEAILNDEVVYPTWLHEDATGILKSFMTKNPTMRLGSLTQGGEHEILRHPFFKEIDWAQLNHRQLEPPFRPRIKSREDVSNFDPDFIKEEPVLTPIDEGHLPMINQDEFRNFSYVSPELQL

[3] = biological target: T1, Protein kinase C gamma type; test: Inhibition of [3H]- PDBu binding to peptide C, rat brain PKC gamma (inactive)
[4] = biological target: T2, Protein kinase C eta type; test: Inhibition of [3H]- PDBu binding to peptide D of mouse skin Protein kinase C eta (inactive)

SMILES	Ki [1]	Ki [2]	Ki [3]	Ki [4]
C=C[C@@]1(C)CC[C@](C)(C(C)C)c2cc3c4c(c[nH]c4c21)C[C@@H](CO)NC(=O)[C@H](C(C)C)N3C	2 nM	0.1 nM	–	–
CCCC(=O)O[C@@H]1[C@@H](C)[C@@]2(O)[C@@H](C=C(CO)C[C@]3(O)C(=O)C(C)=C[C@@H]23)[C@@H]2C(C)(C)[C@]12OC(=O)CCC	52.9 nM	0.6 nM	–	–
CCCCCCCCCC(=O)O[C@@H]1[C@@H](C)[C@@]2(O)[C@@H](C=C(CO)C[C@@]3(O)C(=O)C(C)=C[C@@H]23)[C@@H]2C(C)(C)[C@]12OC(=O)CCCCCCCCC	–	–	Not Active	Not Active
CCCCCCCC(=O)OCC(CO)OC(=O)CCCCCCC (configuration not stated) [MONOCTANOIN COMPONENT C]	–	14.5 nM	–	–
